According to patent US20170239307A1, “COMPOSITION OF DOXYCYCLINE IN LIPOSOMES FOR THE PREVENTION, IMPROVEMENT AND/OR TREATMENT OF OCULAR PATHOLOGIES” (AGENCIA PÚBLICA EMPRESARIAL SANITARIA HOSPITAL ALTO …, priority 2014, published 2017):

Assays:
vascular intimal layer = conditions: patients taking doxycycline; cited from earlier work
thrombosis = conditions: certain groups of hemodialysis patients; cited from earlier work
[1] = tested on: chronic anterior and posterior blepharitis; test: Case report: patient with blepharitis and glycemic decompensation, clinic examinations; conditions: same patient; high doses of oral doxycycline prescribed for 20 days, treatment abandoned
Excerpt: Treatment with tobramycin and dexamethasone in the form of eye drops and artificial tears was established at that time.

[2] = tested on: symptoms derived from blepharitis-dry eye like disease; test: Symptom score according to the dry eye questionnaire; format: in vivo, patients
Excerpt: FIG. 2. Individual analysis of each patient according to dry eye questionnaire score. All patients completed a questionnaire to evaluate the symptoms derived from blepharitis-dry eye like disease. […] FIG. 3. […] This figure complements FIG. 2. This test was designed (see test design literature) for assessing the symptoms the patient experiences and they can be expressed by means of a score based on questions about these symptoms.

diabetic retinopathy = test: Case report: supervision of the fundus of the eye in a diabetic patient; format: in vivo; conditions: diabetic patient with high blood glucose; treatment orally and as eye drops from 11 Feb. 2009
aneurysmal dilatation = conditions: rats; cited from earlier work

Compound: C[C@H]1c2cccc(O)c2C(O)=C2C(=O)[C@]3(O)C(=O)/C(=C(/N)O)C(=O)[C@@H](N(C)C)[C@@H]3[C@@H](O)[C@@H]21 [doxycycline, (2Z,4S,4aR,5S,5aR,6R,12aS)-2-(amino-hydroxymethylidene)-4-dimethylamino-5,10,11,12a-tetrahydroxy-6-methyl-4a,5,5a,6-tetrahydro-4H-tetracene-1,3,12-trione]
- vascular intimal layer proliferation and muscle cell migration (vascular intimal layer): less vascular intimal layer proliferation as well as less muscle cell migration
- prevention of thrombosis (thrombosis): effective in the prevention of thrombosis
- intolerance / side effect [1]: an episode of gastritis
- symptom score, dry eye questionnaire, each patient ([2]; 12 blepharitis patients, before treatment at least moderate, most severe, FIG. 2): symptoms improved
- sum of all the scores in all patients, dry eye questionnaire ([2]; before vs after treatment, FIG. 3): Symptoms decreased significantly
- signs of diabetic retinopathy (diabetic retinopathy): no signs of diabetic retinopathy
- aneurysmal dilatation (aneurysmal dilatation): capable of preventing aneurysmal dilatation without subsequent signs of inflammation
